Reference: ChEMBL document CHEMBL4765344, “Expanding the anticancer potential of 1,2,3-triazoles via simultaneously targeting Cyclooxygenase-2, 15-lipoxygenase and tumor-associated carbonic anhydrases” (Eur J Med Chem, 2020)

Key:
[1] = molecular target: T1, Prostaglandin G/H synthase 1 (Ovis aries, UniProt P05979); assay: Inhibition of ovine COX1 by colorimetric analysis
T1 sequence (P05979 whole entry): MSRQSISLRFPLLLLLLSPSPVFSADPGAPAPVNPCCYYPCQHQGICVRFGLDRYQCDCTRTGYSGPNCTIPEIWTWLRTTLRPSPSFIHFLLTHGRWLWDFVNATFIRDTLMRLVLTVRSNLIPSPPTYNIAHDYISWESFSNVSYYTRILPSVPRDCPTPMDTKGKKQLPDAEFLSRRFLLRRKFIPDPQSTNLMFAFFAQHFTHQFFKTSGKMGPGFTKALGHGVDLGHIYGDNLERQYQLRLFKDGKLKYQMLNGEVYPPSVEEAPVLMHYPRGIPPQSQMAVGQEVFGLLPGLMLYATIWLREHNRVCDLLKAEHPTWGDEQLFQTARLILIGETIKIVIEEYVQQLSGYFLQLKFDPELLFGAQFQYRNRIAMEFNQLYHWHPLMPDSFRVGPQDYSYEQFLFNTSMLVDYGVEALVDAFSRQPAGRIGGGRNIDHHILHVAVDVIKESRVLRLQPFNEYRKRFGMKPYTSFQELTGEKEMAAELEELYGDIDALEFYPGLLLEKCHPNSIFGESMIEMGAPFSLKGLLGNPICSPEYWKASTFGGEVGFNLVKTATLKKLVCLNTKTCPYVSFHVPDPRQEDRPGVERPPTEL

[2] = Inhibition of soya bean 15-LOX; set-up: species or system Glycine max
Carbonic anhydrase 1 = Carbonic anhydrase 1 (Homo sapiens, UniProt P00915); assay: Inhibition of human CA1 by stopped-flow carbon dioxide hydration assay
Carbonic anhydrase 2 = Carbonic anhydrase 2 (Homo sapiens, UniProt P00918); assay: Inhibition of human CA2 by stopped-flow carbon dioxide hydration assay
Carbonic anhydrase 9 = Carbonic anhydrase 9 (Homo sapiens, UniProt Q16790); assay: Inhibition of human CA9 by stopped-flow carbon dioxide hydration assay
Carbonic anhydrase 12 = Carbonic anhydrase 12 (Homo sapiens, UniProt O43570); assay: Inhibition of human CA12 by stopped-flow carbon dioxide hydration assay
WI-38 = assay: Cytotoxicity against human WI-38 cells assessed as reduction in cell viability after 72 hrs by SRB assay; format: cell-based; details: WI-38, 72 h
A549 [3] = assay: Antiproliferative activity against human A549 cells assessed as inhibition of cell growth at 100 microM measured after 72 hrs by SRB assay; format: functional
HepG2 [4] = assay: Antiproliferative activity against human HepG2 cells assessed as inhibition of cell growth at 100 microM measured after 72 hrs by SRB assay; format: functional
MCF7 [5] = assay: Antiproliferative activity against human MCF-7 cells assessed as inhibition of cell growth at 100 microM measured after 72 hrs by SRB assay; format: functional
A549 [6] = assay: Antiproliferative activity against human A549 cells assessed as cell growth inhibition measured after 72 hrs by SRB assay; format: functional, cell-based; details: A549, 72 h
HepG2 [7] = assay: Antiproliferative activity against human HepG2 cells assessed as cell growth inhibition measured after 72 hrs by SRB assay; format: functional, cell-based; details: HepG2, 72 h
MCF7 [8] = assay: Antiproliferative activity against human MCF-7 cells assessed as cell growth inhibition measured after 72 hrs by SRB assay; format: functional, cell-based; details: MCF7, 72 h
MCF7 [9] = assay: Induction of apoptosis in human MCF-7 cells assessed as early apoptotic cells at IC50 measured after 24 hrs by Annexin V-FITC/propidium iodide staining based flow cytometry (reference value: 0.4%); format: functional
MCF7 [10] = assay: Induction of apoptosis in human MCF-7 cells assessed as late apoptotic cells at IC50 measured after 24 hrs by Annexin V-FITC/propidium iodide staining based flow cytometry (reference value: […]); format: functional
MCF7 [11] = assay: Induction of apoptosis in human MCF-7 cells assessed as necrotic cells at IC50 measured after 24 hrs by Annexin V-FITC/propidium iodide staining based flow cytometry (reference value: 1.27%); format: functional
MCF7 [12] = assay: Induction of apoptosis in human MCF7 cells assessed as caspase-9 expression at IC50 by ELISA (reference value: 1.77 +/- 0.1 ng/ml); format: functional
MCF7 [13] = assay: Induction of apoptosis in human MCF7 cells assessed as fold change in caspase-9 expression at IC50 by ELISA relative to control; format: functional
MCF7 [14] = assay: Induction of apoptosis in human MCF7 cells assessed as Bax expression at IC50 by ELISA (reference value: 45.46 +/- 3.6 pg/ml); format: functional
MCF7 [15] = assay: Induction of apoptosis in human MCF7 cells assessed as fold change in Bax expression at IC50 by ELISA relative to control; format: functional
MCF7 [16] = assay: Induction of apoptosis in human MCF7 cells assessed as Bcl-2 expression at IC50 by ELISA (reference value: 7.49 +/- 0.1 ng/ml); format: functional
MCF7 [17] = assay: Induction of apoptosis in human MCF7 cells assessed as fold change in Bcl-2 expression at IC50 by ELISA relative to control; format: functional
HT-29 = assay: Cytotoxicity against human HT-29 cells assessed as reduction in cell viability incubated for 24 hrs by MTS assay; format: functional, cell-based; details: HT-29, 24 h
THP-1 = assay: Cytotoxicity against PMA/LPS-challenged human THP1 cells assessed as reduction in cell viability incubated for 24 hrs by MTS assay; format: functional, cell-based; details: THP-1, 24 h
MCF7 [18] = assay: Induction of cell cycle arrest in human MCF7 cells assessed as accumulation at pre-G1 phase at IC50 measured after 24 hrs by propidium iodide/RNase staining based flow cytometry (reference value: 1.96%); format: functional
MCF7 [19] = assay: Induction of cell cycle arrest in human MCF7 cells assessed as accumulation at G0/G1 phase at IC50 measured after 24 hrs by propidium iodide/RNase staining based flow cytometry (reference value: 51.72%); format: functional
MCF7 [20] = assay: Induction of cell cycle arrest in human MCF7 cells assessed as accumulation at G2/M phase at IC50 measured after 24 hrs by propidium iodide/RNase staining based flow cytometry (reference value: 18.4%); format: functional
MCF7 [21] = assay: Induction of cell cycle arrest in human MCF7 cells assessed as accumulation at S phase at IC50 measured after 24 hrs by propidium iodide/RNase staining based flow cytometry (reference value: 29.88%); format: functional
MCF7 [22] = assay: Induction of cell cycle arrest in human MCF7 cells assessed as reduction in accumulation at G0/G1 phase at IC50 measured after 24 hrs by propidium iodide/RNase staining based flow cytometry relative to control; format: functional
MCF7 [23] = assay: Induction of cell cycle arrest in human MCF7 cells assessed as increase in accumulation at G2/M phase at IC50 measured after 24 hrs by propidium iodide/RNase staining based flow cytometry relative to control; format: functional
MCF7 [24] = assay: Induction of cell cycle arrest in human MCF7 cells assessed as increase in accumulation at pre-G1 phase at IC50 measured after 24 hrs by propidium iodide/RNase staining based flow cytometry relative to control; format: functional
MCF7 [25] = assay: Induction of apoptosis in human MCF-7 cells assessed as total apoptotic cells at IC50 measured after 24 hrs by Annexin V-FITC/propidium iodide staining based flow cytometry (reference value: 0.69%); format: functional
MCF7 [26] = assay: Induction of apoptosis in human MCF-7 cells assessed as increase in total apoptotic cells at IC50 measured after 24 hrs by Annexin V-FITC/propidium iodide staining based flow cytometry relative to 5-FU; format: functional

Sequence of Carbonic anhydrase 12 (O43570 whole entry): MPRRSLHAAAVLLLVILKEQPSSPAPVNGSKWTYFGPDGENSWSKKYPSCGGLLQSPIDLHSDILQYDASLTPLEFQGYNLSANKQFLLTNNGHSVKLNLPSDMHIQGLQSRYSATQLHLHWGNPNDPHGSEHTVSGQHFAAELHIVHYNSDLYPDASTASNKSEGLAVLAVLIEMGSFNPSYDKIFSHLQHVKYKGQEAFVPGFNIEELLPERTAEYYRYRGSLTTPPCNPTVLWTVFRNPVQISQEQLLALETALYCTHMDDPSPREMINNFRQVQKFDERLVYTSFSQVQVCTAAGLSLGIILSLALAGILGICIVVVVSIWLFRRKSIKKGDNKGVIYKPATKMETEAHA
Sequence of Carbonic anhydrase 1 (P00915 whole entry): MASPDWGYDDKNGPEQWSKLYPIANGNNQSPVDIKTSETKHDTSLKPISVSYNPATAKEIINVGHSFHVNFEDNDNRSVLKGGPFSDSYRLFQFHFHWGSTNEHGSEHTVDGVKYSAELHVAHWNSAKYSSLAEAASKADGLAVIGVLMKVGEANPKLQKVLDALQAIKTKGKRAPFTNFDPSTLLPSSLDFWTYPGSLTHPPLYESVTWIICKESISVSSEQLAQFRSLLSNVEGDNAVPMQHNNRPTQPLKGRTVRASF

With C/C(=N\Nc1nc(-c2ccc(Cl)cc2)cs1)c1nnn(-c2ccc(Cl)cc2)c1C the IC50 [1] was 11.9 µM, the IC50 [2] was 1.68 µM and the Ki (Carbonic anhydrase 1) was over 100 µM. For the same compound, the Ki (Carbonic anhydrase 2) was over 100 µM, the Ki (Carbonic anhydrase 9) was over 100 µM and the Ki (Carbonic anhydrase 12) was over 100 µM. It also gave an IC50 (WI-38) of 379 µM, an inhibition at 100 µM (A549 [3]) of 77.5% and an inhibition at 100 µM (HepG2 [4]) of 74.4%. For the same compound, the inhibition at 100 µM (MCF7 [5]) was 91.3%, the IC50 (A549 [6]) was 8.9 µM and the IC50 (HepG2 [7]) was 2.37 µM. It also gave an IC50 (MCF7 [8]) of 2.69 µM, an Activity (MCF7 [9]) of 5.88% and an Activity (MCF7 [10]) of 11.29%. For the same compound, the Activity (MCF7 [11]) was 2.19%, the Activity (MCF7 [12]) was 13.02 ng/mL and the “fold change (FC)” value (MCF7 [13]) was 7.36. The Activity (MCF7 [14]) was 227.2 pg/mL, the “fold change (FC)” value (MCF7 [15]) was 4.99 and the Activity (MCF7 [16]) was 4.02 ng/mL. The “fold change (FC)” value (MCF7 [17]) was 0.54, the IC50 (HT-29) was 36.5 µM and the IC50 (THP-1) was 133 µM. The Activity (MCF7 [18]) was 19.36%, the Activity (MCF7 [19]) was 36.41% and the Activity (MCF7 [20]) was 38.7%. For the same compound, the Activity (MCF7 [21]) was 24.89%, the “fold change (FC)” value (MCF7 [22]) was 1.4 and the “fold change (FC)” value (MCF7 [23]) was 2.1. For the same compound, the “fold change (FC)” value (MCF7 [24]) was 9.9, the Activity (MCF7 [25]) was 17.17% and the Activity (MCF7 [26]) was 70%.
